{
  "source": "patent US9409891B2",
  "about": "“Solid forms of an antiviral compound” (Gilead Sciences, Inc., priority 2012, dated 2016)",
  "assay_type_in_all_cases": "physicochemical",
  "key": {"[1]": {"experiment": "Follow-up stable form screening (Form II stirred in solvents at about 22° C.)", "settings": "for 2-Week Form / 24 h Form: Form II stirred at about 22° C.; for solubility: about 22° C., Form II start", "description": "In the follow-up stable form screening experiments, the starting materials were Form II. The solids were stirring in the solvents list below at about 22° C. in 2 ml vials."}, "[2]": {"experiment": "Stable form competition study in ACN", "settings": "Forms I through V added to high concentration solution of amorphous Compound I in ACN, stirred overnight", "description": "To further verify the stability of Form II, competitive crystallization was conducted by adding Forms I through V into a high concentration solution of amorphous Compound I in ACN. […] The mother liquor obtained, which was saturated in terms of Form II, was used in another test in which other forms (Forms I, III, IV and V) were added."}, "[3]": {"experiment": "Hydrate screening, ACN/water system"}, "[4]": {"experiment": "Hydrate screening, EtOH/water system", "settings": "ethanol/water", "excerpt": "When the organic component used in the solvent mixture forms solvate with Compound I, potential hydrates may not show up in the slurry screen, as shown in the hydrate screening using ethanol/water mixtures (Table 4). Form IX is a new form found in this study."}, "[5]": {"experiment": "Form II stability in water at elevated temperature (slurry, XRPD)", "description": "During formulation, Compound I may be wet granulated and dried at <50° C. A slurry of Form II in water was stirred at 48° C. (50° C. jacket) and was sampled periodically for XRPD analysis to determine Form I content."}, "[6]": {"experiment": "Stability and hygroscopicity under ambient conditions"}, "[7]": {"experiment": "Seeding of Compound I solution in DIPE with Form VI", "settings": "Compound I solution in DIPE seeded with Form VI; only Form II obtained", "description": "In an attempt crystallize Form VI, the solution of Compound I in DIPE was seeded with Form VI. However, only Form II was obtained."}, "[8]": {"settings": "water content 10%, water activity 0.510"}, "[9]": {"settings": "water content 20%, water activity 0.654"}},
  "note": "“Also recorded” adds a separate entry of the source.",
  "data": [
    {"smiles": "CC1=CC[C@H](C(=O)N(c2cc(C#CC(C)(C)C)sc2C(=O)O)[C@H]2CC[C@](O)(CO[C@H]3CCOC3)CC2)CC1", "note": "(relative stereo) [Form II, 5-(3,3-dimethylbutyn-1-yl)-3-[(cis-4-hydroxy-4-{[(3S)-tetrahydrofuran-3-yloxy]methyl}cyclohexyl){[(1R)-4-methylcyclohex-3-en-1-yl]carbonyl}amino]thiophene-2-carboxylic acid]", "values": [
      {"measurement": "2-Week Form", "setting": "[1]; 2 Me-THF", "result": "solution"},
      {"measurement": "24 h Form", "setting": "[1]; 2 Me-THF", "result": "solution"},
      {"measurement": "solubility", "setting": "[1]; 2 Me-THF, solution", "result": ">334", "unit": "mg/mL"},
      {"measurement": "solubility", "setting": "[1]; ACN/water (50/50)", "result": 18, "unit": "mg/mL"},
      {"measurement": "solubility", "setting": "[1]; ACN", "result": 6, "unit": "mg/mL"},
      {"measurement": "solubility", "setting": "[1]; Acetone", "result": 241, "unit": "mg/mL"},
      {"measurement": "2-Week Form", "setting": "[1]; DCM", "result": "solution"},
      {"measurement": "24 h Form", "setting": "[1]; DCM", "result": "solution"},
      {"measurement": "solubility", "setting": "[1]; DCM, solution", "result": ">274", "unit": "mg/mL"},
      {"measurement": "solubility", "setting": "[1]; Ethyl Acetate", "result": 124, "unit": "mg/mL"},
      {"measurement": "solubility", "setting": "[1]; Heptane", "result": 0.05, "unit": "mg/mL"},
      {"measurement": "solubility", "setting": "[1]; Isopropyl Acetate", "result": 59, "unit": "mg/mL"},
      {"measurement": "solubility", "setting": "[1]; MIBK", "result": 116, "unit": "mg/mL"},
      {"measurement": "2-Week Form", "setting": "[1]; MeOH", "result": "solution"},
      {"measurement": "24 h Form", "setting": "[1]; MeOH", "result": "solution"},
      {"measurement": "solubility", "setting": "[1]; MeOH, solution", "result": ">321", "unit": "mg/mL"},
      {"measurement": "solubility", "setting": "[1]; Methyl t-butyl ether", "result": 108, "unit": "mg/mL"},
      {"measurement": "2-Week Form", "setting": "[1]; THF", "result": "solution"},
      {"measurement": "24 h Form", "setting": "[1]; THF", "result": "solution"},
      {"measurement": "solubility", "setting": "[1]; THF, solution", "result": ">346", "unit": "mg/mL"},
      {"measurement": "solubility", "setting": "[1]; Toluene", "result": 40, "unit": "mg/mL"},
      {"measurement": "24 h Form", "setting": "[1]; Water", "result": "II + I"},
      {"measurement": "Stability of Form II in tested solvents (summary of Table 2)", "setting": "[1]; stirred at about 22° C., up to 2 weeks", "result": "stable in most tested solvents except for alcohols, water, and MEK"},
      {"measurement": "Form detected after competitive crystallization", "setting": "[2]", "result": "the only detected form"},
      {"measurement": "Equivalent RH up to which Form II is stable", "setting": "[3]; 22° C.", "result": "≤ 86.3", "unit": "% RH"},
      {"measurement": "Water activity up to which Form II is stable", "setting": "[3]; 22° C.", "result": "up to 0.863"},
      {"measurement": "Form at 2 weeks", "setting": "[3]; water content 30%, water activity 0.896, 22° C.", "result": "VIII"},
      {"measurement": "Form at 2 weeks", "setting": "[3]; water content 32%, water activity 0.9, 22° C.", "result": "VIII"},
      {"measurement": "Form at 2 weeks", "setting": "[3]; water content 40%, water activity 0.914, 22° C.", "result": "VIII"},
      {"measurement": "Form at 2 weeks", "setting": "[3]; water content 50%, water activity 0.926, 22° C.", "result": "VIII"},
      {"measurement": "Form at 24 h or 90 h", "setting": "[3]; water content 50%, water activity 0.926, 90 h, 22° C.", "result": "II + small"},
      {"measurement": "Form at 2 weeks", "setting": "[3]; water content 60%, water activity 0.936, 22° C.", "result": "VIII"},
      {"measurement": "Form at 24 h or 90 h", "setting": "[3]; water content 60%, water activity 0.936, 90 h, 22° C.", "result": "VIII + small"},
      {"measurement": "Form at 2 weeks", "setting": "[3]; water content 70%, water activity 0.943, 22° C.", "result": "VIII"},
      {"measurement": "Form at 2 weeks", "setting": "[3]; water content 80%, water activity 0.949, 22° C.", "result": "II + VIII"},
      {"measurement": "Form at 24 h or 90 h", "setting": "[3]; water content 80.9%, water activity 0.950, 24 h, 22° C.", "result": "I + II"},
      {"measurement": "Form at 24 h or 90 h", "setting": "[3]; water content 100%, water activity 1, 24 h, 22° C.", "result": "I + II"},
      {"measurement": "Form at 2 weeks", "setting": "[4]; [8]", "result": "solution"},
      {"measurement": "Form at 90 hours", "setting": "[4]; [8]", "result": "solution"},
      {"measurement": "Form at 2 weeks", "setting": "[4]; [9]", "result": "solution"},
      {"measurement": "Form at 90 hours", "setting": "[4]; [9]", "result": "solution"},
      {"measurement": "Form at 90 hours", "setting": "[4]; water content 50%, water activity 0.806", "result": "III + small"},
      {"measurement": "Form conversion in water", "setting": "[5]; Form II in water at 48° C.", "result": "slowly converted to Form I; also recorded: converts slowly to Form I"},
      {"measurement": "Form I content by XRPD", "setting": "[5]; Form II slurry in water, 48° C. (50° C. jacket), 6 hour point", "result": "not detected"},
      {"measurement": "Form by XRPD", "setting": "[5]; Form II slurry in water, 48° C., after 30 hours", "result": "Form I became the dominant form"},
      {"measurement": "Stability and hygroscopicity", "setting": "[6]", "result": "stable and non-hygroscopic"},
      {"measurement": "Relative stability of forms", "setting": "[7]", "result": "more stable than Form VI"}
    ]}
  ]
}
